Reference: patent publication US20170362283A1, “NISIN-BASED COMPOUNDS AND USE THEREOF IN THE TREATMENT OF BACTERIAL INFECTIONS” (UNIVERSITEIT UTRECHT HOLDING B.V., priority 2015, published 2017)
Read-outs that look alike come from different tables or passages of the source.

What was measured:
[1] = Lipid II-binding in model membranes (carboxyfluorescein efflux from LUVs); type: biochemical; conditions: concentration of 5 nM; CF-loaded DOPC LUVs with 0.2% lipid II
Method: Large unilamellar vesicles (LUVs), composed of 1,2-dioleoyl-sn-glycero-3-phosphocholine (DOPC) spiked with 0.2% lipid II, were loaded with carboxyfluorescein (CF). The CF efflux was monitored by measuring the increase in fluorescence intensity at 515 nm, with excitation at 492 nm. In a cuvette, a solution (1 mL) of CF-loaded vesicles (20 μM final concentration) in buffer (Tris.HCl, pH 7.0 containing 100 mM NaCl) was prepared and the relevant final concentration of compounds (6), (10), and (12), and also compound (24) with R1-group (e), were added and the mixture was stirred for 1 min and the fluorescence was recorded (A0). After ca. 10 seconds, nisin (comparative compound B) was added (5 nM final concentration) and the fluorescence was followed until it stabilized, then recorded (Astable). Total membrane leakage was induced by the addition of Triton-X100 (final concentration 0.1%) and the fluorescence was recorded (Atotal). The percentile values were calculated by: […]

[2] = tested on: VRE 155; type: cell-based; conditions: duplicate experiments
Outline: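 Broth dilution MIC following CLSI M07-A9; overnight TSB cultures diluted to 0.5×10^6 CFU in TSB and incubated with compound at 37° C for 16 hours. MIC read by visual inspection of growth.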

[3] = tested on: erythrocytes; experiment: Hemolysis assay; conditions: human erythrocytes, 1 h, at 32 μg/mL
Method: Human whole blood was centrifuged at 600×g for 15 min and levels of plasma and hematocrit were marked on the tube. Plasma was removed and the erythrocytes washed 3× with PBS (centrifuging at 600×g for 15 mins). After discarding the supernatant, the packed cells were stored on ice. 100 μL of the peptides (128 μg/mL in PBS, 2% DMSO) as well as a control solution comprised of 2% DMSO in PBS were added to the top row of a polypropylene, round-bottom 96 well plate and 50 μL of PBS to the rest of the wells. The peptides and the DMSO control solutions were then diluted serially down the rows. 200 μL of the packed cells were added to PBS (10 mL) and 50 μL of this suspension was added to each well. A column with DI water containing 0.1% Triton X-100 was used as the 100% lysis control, and the column containing the serially-diluted PBS (1.0% DMSO) control served as the 0% lysis reference. The cells were incubated at 37° C. for 1 h. After incubation the plates were centrifuged (800×g, 5 min) and 25 μL of the supernatant was added to 100 μL DI water in a flat-bottom plate (polystyrene). The absorption at 414 nm was recorded to measure the amount of free hemoglobin.

[4] = tested on: thirty VRE strains
[5] = tested on: S. aureus; conditions: duplicate experiments
[6] = tested on: B. subtilis; conditions: duplicate experiments
[7] = tested on: E. coli; conditions: duplicate experiments
[8] = tested on: E. faecium E1162; experiment: BioScreen growth assay for E. faecium E1162; type: cell-based; conditions: 5 μM
Method: (§1) A BioScreen C instrument (Oy Growth Curves AB, Helsinki, Finland) was used to monitor effects of the compounds (6), (10), and (12) and the effect of compound (24) with R1-group (e), or Comparative compound B (nisin) on E. faecium growth (each compound administered at a fixed concentration 5 μM). E. faecium strains were inoculated at an initial OD660 of 0.05 into 300 μl TSB containing 1% DMSO and 1% glucose or into the same medium containing the antibiotic compounds at a final concentration of 5 μM. […]
(§2) The E. faecium strains used in these experiments are E. faecium E745 (vancomycin-ampicillin resistant hospital outbreak strain), E. faecium E980 (vancomycin-ampicillin susceptible human commensal isolate), E. Faecium E1133 (vancomycin-ampicillin resistant hospital outbreak strain), and E. faecium E1162 (vancomycin-susceptible ampicillin-resistant clinical isolate). The BioScreen growth assays for each strain was determined for the compounds (6), (10), (12) and also for compound (24) with R1-group (e) as well as nisin (Comparative compound B) and compared to non-treated strains, the results being shown in the Tables 9 to 12 below.

[9] = tested on: E. faecium E980; experiment: BioScreen growth assay for E. faecium E980; type: cell-based; conditions: 5 μM
Method: as §1, §2

nisin [Compound B]
leakage of the CF dye [1]: about 50%
MIC values VRE 155 [2]: 5 µg/mL
hemolysis [3]: negligible hemolysis
MIC ([4]; VRE strain E0013, GBR, vanA): 8 µg/mL
MIC ([4]; VRE strain E0072, NLD, vanA): 2 µg/mL
MIC ([4]; VRE strain E0300, USA, vanA): 8 µg/mL
MIC ([4]; VRE strain E0321, FRA, vanA): 2 µg/mL
MIC ([4]; VRE strain E0333, ISR, vanA): 4 to 8 µg/mL
MIC ([4]; VRE strain E0338, ITA, vanA): 8 µg/mL
MIC ([4]; VRE strain E0341, GBR, vanA): 4 µg/mL
MIC ([4]; VRE strain E0506, AUS, vanA): 4 to 8 µg/mL
MIC ([4]; VRE strain E0745, NLD, vanA): 4 µg/mL
MIC ([4]; VRE strain E1130, USA, vanA): 4 to 8 µg/mL
MIC ([4]; VRE strain E1441, GRC, vanA): 4 µg/mL
MIC ([4]; VRE strain E1679, BRA, vanA): 4 µg/mL
MIC ([4]; VRE strain E1763, BEL, vanA): 8 µg/mL
MIC ([4]; VRE strain E2297, USA, vanA): 4 µg/mL
MIC ([4]; VRE strain E2359, SGP, vanB): 8 µg/mL
MIC ([4]; VRE strain E2365, HUN, vanB): 2 to 4 µg/mL
MIC ([4]; VRE strain E2373, SRB, vanA): 4 µg/mL
MIC ([4]; VRE strain E6016, LVA, vanA): 4 µg/mL
MIC ([4]; VRE strain E7312, NLD, vanA): 4 µg/mL
MIC ([4]; VRE strain E7314, NLD, vanB): 4 to 8 µg/mL
MIC ([4]; VRE strain E7319, NLD, vanA): 4 µg/mL
MIC ([4]; VRE strain E7329, NLD, vanA): 4 µg/mL
MIC ([4]; VRE strain E7401, NLD, vanB): 8 µg/mL
MIC ([4]; VRE strain E7403, NLD, vanB): 4 µg/mL
MIC ([4]; VRE strain E7413, NLD, vanA): 4 µg/mL
MIC ([4]; VRE strain E7424, NLD, vanB): 4 µg/mL
MIC ([4]; VRE strain E7464, NLD, vanB): 4 µg/mL
MIC ([4]; VRE strain E8218, NLD, vanB): 4 µg/mL
MIC ([4]; VRE strain E8235, NLD, vanB): 4 µg/mL
MIC ([4]; VRE strain E8237, NLD, vanA): 8 µg/mL
MIC values S. aureus [5]: 10 µg/mL
MIC values B. subtilis [6]: 0.625 to 2.5 µg/mL
MIC values E. coli [7]: >10 µg/mL
OD600 ([8]; time 0 h): 0.024
OD600 ([8]; time 4 h): 0.01533
OD600 ([8]; time 8 h): 0.01133
OD600 ([8]; time 12 h): 0.012
OD600 ([8]; time 16 h): 0.01033
OD600 ([9]; time 0 h): 0.016
OD600 ([9]; time 4 h): 0.01167
OD600 ([9]; time 8 h): 0.011
OD600 ([9]; time 12 h): 0.011
OD600 ([9]; time 16 h): 0.01067
